The values that follow come from US4089893A, “2,2,2-Tris(hydroxymethyl)ethylphosponic acid and method for its preparation” (Borg-Warner Corporation, priority 1976, dated 1978).

The data set is described as follows: solubility. It is filed as physicochemical. Conditions: syrup product of Example 2.

`O=P(O)(O)CC(CO)(CO)CO` [Phosphonic Acid, 3-hydroxy-2,2-bis(hydroxymethyl)propylphosphonic acid]: the solubility entry was “soluble in water and highly polar organic solvents”.
